Data reported in the supplement of paper PMC10307832.

How the values were obtained:
Assay in all cases: relative viability (nuclei count vs DMSO), 5 days (fraction); higher = more cells survive
[1] = system: HOP-62
Method in brief: (§1)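 Lung cancer cell lines, seeded in 1536-well plates, were treated the following day by pin tool with a single drug or with five library-drug doses (not always all listed) in √10 steps on top of a fixed anchor-drug dose. Cells were fixed and nuclei stained in one step after 5 days, and nuclei were counted. Relative viability is the nuclei count for treated wells divided by that for vehicle wells, reported as medians of duplicate plates.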

[2] = system: SW 1573
Method in brief: as §1

[3] = system: NCI-H1755
Method in brief: as §1

[4] = system: NCI-H460
Method in brief: as §1

[5] = system: NCI-H2228
Method in brief: as §1

[6] = system: A-427
Method in brief: as §1

[7] = system: LXF-289
Method in brief: as §1

[8] = system: HCC-15
Method in brief: as §1

[9] = system: NCI-H647
Method in brief: as §1

[10] = system: RERF-LC-KJ
Method in brief: as §1

[11] = system: PC-3 [JPC-3]
Method in brief: as §1

[12] = system: NCI-H1975
Method in brief: as §1

[13] = system: LC-2-ad
Method in brief: as §1

[14] = system: NCI-H1734
Method in brief: as §1

[15] = system: HCC-78
Method in brief: as §1

[16] = system: SK-LU-1
Method in brief: as §1

[17] = system: NCI-H2126
Method in brief: as §1

[18] = system: LOU-NH91
Method in brief: as §1

[19] = system: NCI-H1792
Method in brief: as §1

[20] = system: NCI-H1915
Method in brief: as §1

[21] = system: NCI-H2347
Method in brief: as §1

**Q.** What does the source list for C=C1C(=O)O[C@@H](CCCCCCCC)[C@@H]1C(=O)O [C-75] + CC(C)C[C@H](NC(=O)[C@H](Cc1ccccc1)NC(=O)c1cnccn1)B(O)O [Bortezomib] (partner 0.002 µM)?
**A.** relative viability ([1]; first compound 0.08 µM): 0.651; relative viability ([1]; first compound 0.253 µM): 0.676; relative viability ([1]; first compound 0.8 µM): 0.89; relative viability ([1]; first compound 2.53 µM): 0.778; relative viability ([1]; first compound 8 µM): 0.916; relative viability ([2]; first compound 0.08 µM): 1.05; relative viability ([2]; first compound 0.253 µM): 0.949; relative viability ([2]; first compound 0.8 µM): 1.03; relative viability ([2]; first compound 2.53 µM): 1.07; relative viability ([2]; first compound 8 µM): 0.912; relative viability ([3]; first compound 0.08 µM): 0.985; relative viability ([3]; first compound 0.253 µM): 0.96; relative viability ([3]; first compound 0.8 µM): 0.925; relative viability ([3]; first compound 2.53 µM): 0.805; relative viability ([3]; first compound 8 µM): 0.957; relative viability ([4]; first compound 0.08 µM): 1.05; relative viability ([4]; first compound 0.253 µM): 1.22; relative viability ([4]; first compound 0.8 µM): 0.982; relative viability ([4]; first compound 8 µM): 0.945; relative viability ([5]; first compound 0.08 µM): 0.836; relative viability ([5]; first compound 0.253 µM): 1.43; relative viability ([5]; first compound 0.8 µM): 0.8; relative viability ([5]; first compound 2.53 µM): 0.729; relative viability ([5]; first compound 8 µM): 0.746; relative viability ([6]; first compound 0.08 µM): 1.01; relative viability ([6]; first compound 0.253 µM): 0.988; relative viability ([6]; first compound 0.8 µM): 1.02; relative viability ([6]; first compound 2.53 µM): 0.78; relative viability ([6]; first compound 8 µM): 1.12; relative viability ([7]; first compound 0.08 µM): 0.945; relative viability ([7]; first compound 0.253 µM): 0.984; relative viability ([7]; first compound 0.8 µM): 0.889; relative viability ([7]; first compound 2.53 µM): 0.951; relative viability ([7]; first compound 8 µM): 0.989; relative viability ([8]; first compound 0.08 µM): 1.04; relative viability ([8]; first compound 0.253 µM): 1.05; relative viability ([8]; first compound 0.8 µM): 0.944; relative viability ([8]; first compound 2.53 µM): 0.943; relative viability ([8]; first compound 8 µM): 1.01; relative viability ([9]; first compound 0.08 µM): 0.836; relative viability ([9]; first compound 0.253 µM): 1.1; relative viability ([9]; first compound 2.53 µM): 0.869; relative viability ([9]; first compound 8 µM): 0.809; relative viability ([10]; first compound 0.08 µM): 1.17; relative viability ([10]; first compound 0.253 µM): 1.09; relative viability ([10]; first compound 0.8 µM): 1.21; relative viability ([10]; first compound 2.53 µM): 1.09; relative viability ([10]; first compound 8 µM): 1.31; relative viability ([11]; first compound 0.08 µM): 0.826; relative viability ([11]; first compound 0.253 µM): 0.839; relative viability ([11]; first compound 0.8 µM): 0.826; relative viability ([11]; first compound 2.53 µM): 0.581; relative viability ([11]; first compound 8 µM): 0.836; relative viability ([12]; first compound 0.08 µM): 0.332; relative viability ([12]; first compound 0.253 µM): 0.395; relative viability ([12]; first compound 0.8 µM): 0.4; relative viability ([12]; first compound 2.53 µM): 0.283; relative viability ([12]; first compound 8 µM): 0.361; relative viability ([13]; first compound 0.08 µM): 1.04; relative viability ([13]; first compound 0.253 µM): 0.97; relative viability ([13]; first compound 0.8 µM): 0.985; relative viability ([13]; first compound 8 µM): 0.961; relative viability ([14]; first compound 0.08 µM): 1.13; relative viability ([14]; first compound 0.253 µM): 0.934; relative viability ([14]; first compound 0.8 µM): 0.886; relative viability ([14]; first compound 2.53 µM): 0.812; relative viability ([14]; first compound 8 µM): 0.785; relative viability ([15]; first compound 0.08 µM): 0.507; relative viability ([15]; first compound 0.253 µM): 0.412; relative viability ([15]; first compound 0.8 µM): 0.386; relative viability ([15]; first compound 2.53 µM): 0.423; relative viability ([15]; first compound 8 µM): 0.472; relative viability ([16]; first compound 0.08 µM): 1.24; relative viability ([16]; first compound 0.253 µM): 1.11; relative viability ([16]; first compound 0.8 µM): 0.836; relative viability ([16]; first compound 2.53 µM): 0.847; relative viability ([16]; first compound 8 µM): 0.658; relative viability ([17]; first compound 0.08 µM): 1.1; relative viability ([17]; first compound 0.253 µM): 1.29; relative viability ([17]; first compound 0.8 µM): 1.09; relative viability ([17]; first compound 2.53 µM): 0.886; relative viability ([17]; first compound 8 µM): 1.08; relative viability ([18]; first compound 0.08 µM): 0.47; relative viability ([18]; first compound 0.253 µM): 0.495; relative viability ([18]; first compound 0.8 µM): 0.454; relative viability ([18]; first compound 2.53 µM): 0.346; relative viability ([18]; first compound 8 µM): 0.394; relative viability ([19]; first compound 0.08 µM): 0.979; relative viability ([19]; first compound 0.253 µM): 0.881; relative viability ([19]; first compound 0.8 µM): 0.845; relative viability ([19]; first compound 2.53 µM): 0.295; relative viability ([19]; first compound 8 µM): 0.886; relative viability ([20]; first compound 0.08 µM): 0.89; relative viability ([20]; first compound 0.253 µM): 0.977; relative viability ([20]; first compound 0.8 µM): 0.935; relative viability ([20]; first compound 2.53 µM): 0.81; relative viability ([20]; first compound 8 µM): 0.922; relative viability ([21]; first compound 0.08 µM): 1.06; relative viability ([21]; first compound 0.253 µM): 1.09; relative viability ([21]; first compound 2.53 µM): 0.851; relative viability ([21]; first compound 8 µM): 0.741
